From the METLIN SMRT retention time set (Domingo-Almenara et al. 2019)
Values belong to the compound of their own block, whether it stands above or below them.

Assay: gradient 5% acetonitrile 3 min, to 50% in 2 min, to 85% in 15 min, held 3 min, 100 µL/min
Settings: column: Zorbax Extend-C18 2.1 x 50 mm; eluents: water / acetonitrile, 0.1% formic acid
Outline: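 A Zorbax Extend-C18 column (2.1 × 50 mm, 1.8 μm) run at 100 μL/min with water and acetonitrile, both containing 0.1% formic acid, separated mixtures of ~100 pure standards. The HPLC was coupled to a quadrupole time-of-flight mass spectrometer operated in positive and negative ionization mode, with dead and dwell volumes of 40 μL and 900 μL. Each retention time was taken from a computationally picked adduct peak that was then manually inspected.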

Structure (SMILES): CCOc1ccccc1-c1noc(Cn2c(=O)n(Cc3ccc(F)cc3)c(=O)c3sccc32)n1
- RP-LC retention time: 1100 s

Structure (SMILES): CCn1c(CCC(=O)NCc2ccc(Cl)cc2)nc2ccccc2c1=O
- RP-LC retention time: 812 s

Structure (SMILES): O=C(NCc1ccc(N2CCOCC2)cc1)c1cn2nc(Cl)ccc2n1
- RP-LC retention time: 656 s

Structure (SMILES): COC(=O)c1ccccc1NC(=O)c1ccc(F)cc1
- RP-LC retention time: 1060 s

Structure (SMILES): COC(=O)c1c(-c2ccc(OC)cc2)csc1N
- RP-LC retention time: 822 s

Structure (SMILES): O=S(=O)(Nc1cccnc1)c1cc(-c2nnc(-c3ccccc3)o2)ccc1F
- RP-LC retention time: 744 s

Structure (SMILES): Cc1cccc(NC(=O)Cn2c(C)nc(C)c(C)c2=O)c1
- RP-LC retention time: 658 s

Structure (SMILES): CCc1nc(-c2ccc(-c3noc(COc4ccc(F)cc4)n3)cc2)cs1
- RP-LC retention time: 1310 s

Structure (SMILES): Cc1ccc(-c2nnc(-c3cccc(S(=O)(=O)N4CCN(C)CC4)c3)o2)cc1
- RP-LC retention time: 679 s

Structure (SMILES): CCCCOc1ccc(C(=O)NC2(c3nc(C)no3)CCCCC2)cc1
- RP-LC retention time: 1080 s

Structure (SMILES): COc1ccc(NS(=O)(=O)c2[nH]ncc2C(=O)NCc2ccc(SC)cc2)cc1
- RP-LC retention time: 807 s

Structure (SMILES): CN(CC1(C)CCOCC1)C(=O)c1ccc2cc[nH]c2c1
- RP-LC retention time: 696 s

Structure (SMILES): CCNc1nc(C)cc(N2CCN(C(=O)Nc3cc(OC)cc(OC)c3)CC2)n1
- RP-LC retention time: 657 s

Structure (SMILES): Cc1nc2cc(-c3noc(COc4ccccc4C)n3)ccc2o1
- RP-LC retention time: 1100 s

Structure (SMILES): COc1ccc(C)cc1NC(=O)Nc1c(-c2ccc(F)cc2)nc2ccccn12
- RP-LC retention time: 714 s

Structure (SMILES): CCOCc1nc2c(N)nc3ccccc3c2n1CC(C)(C)O
- RP-LC retention time: 662 s

Structure (SMILES): CN(CC1CCCO1)c1nc(-c2ccc([N+](=O)[O-])cc2)cs1 (stereo not given)
- RP-LC retention time: 1110 s

Structure (SMILES): O=C(Nc1ccc2nc3n(c(=O)c2c1)CCC3)Nc1ccc(F)cc1F
- RP-LC retention time: 686 s

Structure (SMILES): COC(=O)[C@@H](N)CSC/C=C(\C)CC/C=C(\C)CCC=C(C)C
- RP-LC retention time: 961 s

Structure (SMILES): Cc1cc(C)cc(C(=O)NCc2nn(C)c3ccccc23)c1
- RP-LC retention time: 854 s

Structure (SMILES): COc1cccc(CN2CN(c3ccc(C)cc3)c3ncccc3S2(=O)=O)c1
- RP-LC retention time: 1110 s

Structure (SMILES): CN(C)S(=O)(=O)N1CCN(S(=O)(=O)c2ccc(F)cc2)CC1
- RP-LC retention time: 757 s

Structure (SMILES): O=C(Nc1cc(-c2cccs2)no1)c1cccc(F)c1
- RP-LC retention time: 959 s

Structure (SMILES): CCOc1ccc(CNC(=O)c2c(C)sc3ccn(CC)c(=O)c23)cc1
- RP-LC retention time: 836 s

Structure (SMILES): COc1cc(-c2nc(C3CC(=O)N(c4ccc(Cl)cc4)C3)no2)cc(OC)c1OC (stereo not given)
- RP-LC retention time: 993 s

Structure (SMILES): CC(C)c1nc(CNC(=O)c2ccccc2)no1
- RP-LC retention time: 707 s

Structure (SMILES): COc1ccc(CNC(=O)COc2nc(C)nc3ccccc23)cc1
- RP-LC retention time: 678 s

Structure (SMILES): Cc1ccccc1-n1nc2c(c1NC(=O)CSCc1ccccc1)CSC2
- RP-LC retention time: 907 s

Structure (SMILES): O=C(Nc1cccn2c(C3CCC3)nnc12)c1ccco1
- RP-LC retention time: 696 s

Structure (SMILES): CN1[C@H]2C[C@H](OC(=O)[C@H](CO)c3ccccc3)C[C@@H]1[C@@H](O)C2
- RP-LC retention time: 596 s

Structure (SMILES): CCOc1ccc(-c2noc(Cc3nnc(-c4cccc(Br)c4)o3)n2)cc1
- RP-LC retention time: 1160 s

Structure (SMILES): Oc1ccc2c3c1O[C@H]1c4[nH]c5ccccc5c4C[C@@]4(O)C(C2)N(CC2CC2)CCC314 (stereo not given in full)
- RP-LC retention time: 692 s

Structure (SMILES): COc1cccc(-c2nc(-c3ccc4c(c3)ncn4CCN3CCCC3)no2)c1OC
- RP-LC retention time: 643 s

Structure (SMILES): COC(=O)C1(C)CCCC2(C)c3cc(OC)ccc3C(=O)C(Br)C12 (stereo not given)
- RP-LC retention time: 1130 s

Structure (SMILES): Cc1ccc2[nH]cc(CCNC(=O)Nc3ccc(Cl)cc3)c2c1
- RP-LC retention time: 962 s

Structure (SMILES): COc1ccc(-c2cc(C(=O)NCC(c3ccco3)N(C)C)no2)cc1 (stereo not given)
- RP-LC retention time: 661 s

Structure (SMILES): Cc1nc(C(=O)Nc2ccc(Cl)cc2F)c(C)o1
- RP-LC retention time: 1020 s

Structure (SMILES): c1cncc(-c2noc(CCC3CCCN(C4CCCCC4)C3)n2)c1 (stereo not given)
- RP-LC retention time: 624 s

Structure (SMILES): CCn1nnc2cc(-c3noc(C4CC(=O)N(c5ccc(C)cc5)C4)n3)ccc21 (stereo not given)
- RP-LC retention time: 880 s

Structure (SMILES): Cn1c(=O)c2c3c(cnc2n(C)c1=O)C(=O)CC(c1cccc(Cl)c1)C3 (stereo not given)
- RP-LC retention time: 1020 s

Structure (SMILES): CSc1ccc(CNC(=O)c2ccc3nc(CCc4ccc(NC(C)=O)cc4)[nH]c3c2)cc1
- RP-LC retention time: 663 s

Structure (SMILES): OC1(c2ccccn2)CCOC2(CCN(Cc3ccc(F)cc3Cl)CC2)C1 (stereo not given)
- RP-LC retention time: 570 s

Structure (SMILES): COc1cc(CCNCc2c(C(=O)O)n(C)c3ccccc23)cc(OC)c1OC
- RP-LC retention time: 656 s

Structure (SMILES): CC(C)c1nc(-n2cccc2)sc1C(=O)NC1CC1
- RP-LC retention time: 985 s

Structure (SMILES): O=C(c1ccsc1)N1CCN(c2cc(-c3ccccc3)[nH]n2)CC1
- RP-LC retention time: 730 s

Structure (SMILES): COc1cccc(-c2cc(=O)n3c4ccccc4n(CC(=O)Nc4ccc(F)cc4)c3n2)c1
- RP-LC retention time: 980 s

Structure (SMILES): CCN1c2cc(F)ccc2C(=O)NC12CCN(C(=O)c1cccc(OC)c1)CC2
- RP-LC retention time: 756 s

Structure (SMILES): CCn1c(=O)oc2cc(-c3noc(-c4cc(Cl)ccc4F)n3)ccc21
- RP-LC retention time: 1180 s

Next, values leading:

- RP-LC retention time: 958 s
Structure (SMILES): COc1ccccc1N1CCN(c2cc(SCC(=O)Nc3c(C)cccc3C)ncn2)CC1

- RP-LC retention time: 865 s
Structure (SMILES): Cc1cc(NC(=O)C2Oc3ccccc3NC2=O)ccc1Br (stereo not given)

- RP-LC retention time: 764 s
Structure (SMILES): CC(C)NC(=O)N1CCC(Oc2ccccc2)C1 (stereo not given)

- RP-LC retention time: 940 s
Structure (SMILES): CC(C)n1nnc2cc(S(=O)(=O)N3CCCC(C(=O)N(C)Cc4ccccc4)C3)ccc21 (stereo not given)

- RP-LC retention time: 709 s
Structure (SMILES): CCC1CN(C(=O)N2CCC(C(=O)NCCCN3CCCC3=O)CC2)c2ccccc2O1 (stereo not given)

- RP-LC retention time: 614 s
Structure (SMILES): Cc1cnc(C(=O)NC2C[C@H]3CC[C@@H](C2)N3C(=O)c2cc(C)n(C)n2)cn1 (stereo not given in full)

- RP-LC retention time: 591 s
Structure (SMILES): O=C(NCCN1CCCC1)C1CCCN(c2ncnc3c2nc2n3CCCCC2)C1 (stereo not given)

- RP-LC retention time: 995 s
Structure (SMILES): Cc1ccccc1CNC(=O)C1(C)CCCN(C(=O)Nc2ccc(Cl)cc2)C1 (stereo not given)

- RP-LC retention time: 651 s
Structure (SMILES): CCOc1ccccc1NC(=O)C1CCN(c2cncnc2N2CCOCC2)CC1

- RP-LC retention time: 747 s
Structure (SMILES): COc1ccc(NC(=O)C2CCCN(c3ncnc4c3oc3ccccc34)C2)cc1 (stereo not given)

- RP-LC retention time: 740 s
Structure (SMILES): O=C(NCCc1csc(-c2cccs2)n1)C1CCN(C(=O)c2ccccc2)CC1

- RP-LC retention time: 864 s
Structure (SMILES): CC1CCN(c2nc(C(=O)N(C)c3ccccc3)nc3c2cnn3C)CC1

- RP-LC retention time: 735 s
Structure (SMILES): CC(C)(C)NC(=O)N1CCC(CNC(=O)CSCc2ccccc2)CC1

- RP-LC retention time: 885 s
Structure (SMILES): O=C(Cn1nc(S(=O)(=O)c2cccc(F)c2)ccc1=O)N1CCN(c2ccccc2F)CC1

- RP-LC retention time: 658 s
Structure (SMILES): Cn1nc(C(=O)N2CCCC(C(=O)N3CCCC3)C2)c2c1CCN(C(=O)c1ccccc1F)C2 (stereo not given)

- RP-LC retention time: 1020 s
Structure (SMILES): O=C(C1=NN(CCc2ccccc2)c2ccccc2S1(=O)=O)N1CCCCCC1

- RP-LC retention time: 883 s
Structure (SMILES): CCCN1C(=O)c2c(C(=O)NCc3ccccc3C)ncn2CC1(C)C(=O)NCCC(C)C (stereo not given)

- RP-LC retention time: 869 s
Structure (SMILES): Cc1nc(Nc2ccccc2)sc1C(=O)NC1CCCC1

- RP-LC retention time: 1270 s
Structure (SMILES): Cc1cc2c(cc(C(=O)NCCCc3ccccc3)n2Cc2ccc(Cl)cc2)o1

- RP-LC retention time: 786 s
Structure (SMILES): O=C(CN1C(=O)CCc2cc(Br)ccc21)N1CCN(c2ncccn2)CC1

- RP-LC retention time: 775 s
Structure (SMILES): CCN(CC)C(=O)c1cc2c(s1)CCC(C(=O)Nc1ccc3c(c1)OCCO3)C2 (stereo not given)

- RP-LC retention time: 698 s
Structure (SMILES): CC(C)OCCCNC(=O)Cn1nc2c(cc1=O)CCCCC2

- RP-LC retention time: 876 s
Structure (SMILES): Cc1oc(-c2ccc(C(=O)NCC3COCCO3)cc2)nc1CN1CCc2ccccc21 (stereo not given)

- RP-LC retention time: 1030 s
Structure (SMILES): Fc1ccccc1N1CCN(Cc2nc(-c3ccc(N4CCSCC4)nc3)no2)CC1

- RP-LC retention time: 811 s
Structure (SMILES): COc1ccccc1NC(=O)N1CCC(CNC(=O)c2cc(Cl)ccc2Cl)CC1

- RP-LC retention time: 812 s
Structure (SMILES): O=C(Nc1ccc(N2CCOCC2)cc1)C1CN(S(=O)(=O)C2CC2)CC12CCCCC2 (stereo not given)

- RP-LC retention time: 571 s
Structure (SMILES): COCCNC(=O)N1CCC(C(=O)NCC(F)(F)F)CC1

- RP-LC retention time: 596 s
Structure (SMILES): O=C(NC1CC1)[C@@H]1C[C@H](Oc2cccnc2)CN1C(=O)Cn1c(=O)oc2ccccc21

- RP-LC retention time: 738 s
Structure (SMILES): CCc1nnc2c(=O)n(CC(=O)N3CCN(c4ccccc4)CC3)c3cccnc3n12

- RP-LC retention time: 913 s
Structure (SMILES): CCc1ccc(C(=O)N2CCCn3nc(-c4cccs4)cc3C2)cc1

- RP-LC retention time: 702 s
Structure (SMILES): Cn1nc(N2CCCC(NS(=O)(=O)Cc3ccccc3)C2)ccc1=O (stereo not given)

- RP-LC retention time: 792 s
Structure (SMILES): Cc1noc2ncn(CC(=O)NCCc3ccccc3Cl)c(=O)c12

- RP-LC retention time: 666 s
Structure (SMILES): O=C(c1cccs1)N1CCCn2cc(-c3ccccc3F)nc21

- RP-LC retention time: 791 s
Structure (SMILES): CCOCCCNC(=O)C1(C)Cn2c(ccc2-c2ccco2)C(=O)N1c1ccc(OC)cc1 (stereo not given)

- RP-LC retention time: 643 s
Structure (SMILES): CN1CCN(C(=O)C2CCN(S(=O)(=O)c3cc(-c4noc(C5CC5)n4)cs3)CC2)CC1

- RP-LC retention time: 1030 s
Structure (SMILES): Cc1ccccc1CNC(=O)C1(C)CCCN(C(=O)Nc2cccc(Cl)c2)C1 (stereo not given)

- RP-LC retention time: 635 s
Structure (SMILES): COCc1nncn1C1CCN(C(=O)c2cc(F)ccc2Cl)CC1

- RP-LC retention time: 734 s
Structure (SMILES): O=C(Cn1c(=O)n(CCc2ccccc2)c(=O)c2ncccc21)Nc1ccc2c(c1)OCO2

- RP-LC retention time: 704 s
Structure (SMILES): CCC(=O)N1CCc2cc(S(=O)(=O)CCC(=O)N3CCN(c4ccc(C)cc4)C(C)C3)ccc21 (stereo not given)

- RP-LC retention time: 914 s
Structure (SMILES): Cn1nc(C(=O)Nc2ccccc2)c2c1CCN(C(=O)Nc1cccc(Br)c1)C2

- RP-LC retention time: 610 s
Structure (SMILES): CCN1C(=O)CN(C(=O)c2ccco2)CC12CCOCC2

- RP-LC retention time: 861 s
Structure (SMILES): CCOc1ccccc1NC(=O)CSc1nccc(N2CCN(c3cc(C)ccc3C)CC2)n1
